Source: patent publication US8377934B2, “Use of stilbene derivatives for treatment and prevention of aquatic mold infections” (State of Israel, Ministry of Agriculture & Rural …, priority 2006, dated 2013)

Tests used:
[1] = tested on: Saprolegnia sp.; experiment: Non-randomized field trial in a cement pond, oomycete disease; format: in vivo, hybrid tilapia; details: 50 mg/L
Description: (§1) Following transfer of 2000 hybrid tilapia fish (20-30 g) to a cement pond (1×10^5 L, 21 to 25° C.), white patches of filamentous mycelium were observed on the body and fins of fish, covering in most cases about 80% of the body surface. The mycelia appeared about four days after the transfer, presumably due to opportunistic infection by Saprolegnia sp. following handling stress. Death of 20 to 30 fish per day was recorded. All the dead fish were covered with mycelium, characteristic of Saprolegnia sp., and were also found to be infected with the parasites Gyrodactilus sp. and Trichodina sp.
(§2) The water capacity in the pond was decreased to 3×10^4 L, and treatment with Blankophor® BA (50 mg/L) was initiated. A regimen of 3 treatments (8 h each) with 48 hours intervals between them was used.

[2] = tested on: Lake Kinneret water samples; experiment: Delayed Fluorescent Excitation Spectroscopy (DFES) of natural phytoplankton; format: cell-based; details: 100 mg/L; 4.6 μg/L prior to exposure
Source text: The Delayed Fluorescent Excitation Spectroscopy (DFES) method was used for qualitative and quantitative assessment of the influence of Blankophor® BA on the natural population of phytoplankton, and on specific algae strains. Delayed fluorescence is a unique characteristic of photosynthetically active cells, as it is an outcome of recombination that takes place in the thylakoids in the dark (Yacobi Y. Z., V. Gerhardt, Y. Gonen-Zurgil, and A. Sukenik. 1998. Delayed fluorescence excitation spectroscopy: a rapid method for the qualitative and quantitative assessment of natural population of phytoplankton. Wat. Res. 00:1-6).
Samples from Lake Kinneret and pure cultures of Peridinium sp. and Microcystis sp. were exposed to Blankophor® BA (100 mg/L), for a few minutes and the concentration of chlorophyll-a was determined (in duplicate) according to the excitation spectrum examined (range from 400 to 730 nm). In addition, the exposed and non-exposed samples were assessed for carbon uptake with a ^14C technique.

[3] = tested on: Gyrodactilus sp. and Trichodina sp.; experiment: Non-randomized field trial in a cement pond, concurrent parasitic disease; format: in vivo, hybrid tilapia; details: 50 mg/L, 3 treatments of 8 h at 48 h intervals; 2 days after end
Description: as §1, §2

[4] = tested on: S. parasitica; experiment: Tilapia-saprolegniosis established infection model; format: in vivo; details: 50 and 100 mg/L on 3rd and 8th day
Description: Tilapia were exposed to S. parasitica and treated with Blankophor® BA (100, 50 and 25 mg/L), as described in Example 4, with the exception that Blankophor® BA treatment was started on the 3rd day after initiation of the infection, and repeated on the 8th day. By the starting point of the Blankophor® BA treatment, approximately 50% of the fish had established infection, as indicated by the presence of white skin lesions and a mortality rate of approximately 30%.

[5] = tested on: ICR mice; experiment: Intravenous maximal tolerated dose in mice; format: in vivo; details: male ICR mice
Description: Blankophor® BA was prepared at various concentrations in 5% dextrose and filter sterilized by passage through a sterile 0.2 μm pore size cellulose acetate filter (Schleicher & Schuell, Dassel, Germany). Male albino ICR mice (weight 30 g) were injected through the tail vein with various doses of Blankophor® BA. Each dosage form was administered intravenously as single bolus injection of 0.1 ml of the same dose every 10 min to a group of 10 mice until death was observed. The survival of mice that received the maximal tolerated dose (MTD) was monitored for 8 days.

Structure (SMILES): O=S(=O)([O-])c1cc(Nc2nc(Nc3ccccc3)nc(N(CCO)CCO)n2)ccc1C=Cc1ccc(Nc2nc(Nc3ccccc3)nc(N(CCO)CCO)n2)cc1S(=O)(=O)[O-].[K+].[Na+] [Blankophor® BA]
- presence of Saprolegnia sp. on visual and microscopic examination ([1]; 3 treatments of 8 h at 48 h intervals, 2 days after end): free of
- deaths recorded ([1]; after the first 8 h treatment): no further deaths
- prevalence and intensity of saprolegniosis ([1]; after the first 8 h treatment): Significant reduction
- total chlorophyll concentration (average) [2]: 9.2 µg/L
- presence of parasites on visual and microscopic examination [3]: free of
- efficacy in promoting survival of infected fish [4]: highly effective
- maximal tolerated dose (MTD) [5]: > 1000 mg/kg
